In ChEMBL document CHEMBL2429858, “Five new degraded diterpenoids from Trigonostemon xyphophylloides” (Bioorg Med Chem Lett, 2013):

Experiments:
[1] = test system: SGC-7901; experiment: Cytotoxicity against human SGC7901 cells after 48 hrs by MTT assay; type: functional, cell-based; conditions: SGC-7901, 48 h
[2] = Cytotoxicity against human SPCA1 cells after 48 hrs by MTT assay; type: functional, cell-based; conditions: SPCA1, 48 h

Row | Structure (SMILES) | IC50 [1] [µM] | IC50 [2] [µM]
1 | CO[C@@]12[C@H](COC(N)=O)C3=C(C(=O)C(C)=C(N)C3=O)N1C[C@@H]1N[C@@H]12 [MITOMYCIN] | 2.05 | 1.68
2 | COc1c(O)c(C)cc2c1C1=CC(=O)C(C)(C)C1=CC2=O [TRIGOXYPHIN N] | 5 | 4.08
